{"source": "patent US11684614B2", "about": "“Formulations of hydroxypyridonate actinide/lanthanide decorporation agents” (priority 2017, dated 2023)", "key": {"[1]": {"assay": "Related substance assay / chromatographic API purity of prototype formulations", "type": "physicochemical", "source_text": "Analytical Method I for Related Substance Assay (TABLE 2.5):\nThis method was previously established and validated (see 3,4,3-L1(1,2-HOPO)—Excipient Compatibility Study; EXAMPLE 1). Suitability was therefore not re-evaluated as part of this study.\nAnalytical Method I for Related Substance Assay (TABLE 2.6):\nThe related substances, estimated as area (%) from the chromatograms, and the chromatographic purity of 3,4,3-L1(1,2-HOPO) in selected prototype formulations are listed in TABLE 2.28."}, "[2]": {"type": "in vivo, Swiss-Webster mice", "details": "for urinary excretion, of administered dose: rodents (mice)", "source_text": "(§1) Formulated material was used in the single dose in vivo ADME characterization studies in Sprague Dawley rats and Swiss-Webster mice with 14C-labeled 3,4,3-L1(1,2-HOPO).\n(§2) Pharmacokinetic parameters and disposition/biodistribution of 3,4,3-L1(1,2-HOPO) were characterized in vivo (with the aid of two 14C labels on the spermine backbone of the parent product) in two non-GLP studies using Swiss-Webster mice and Sprague Dawley rats. The study designs for these two studies are shown in TABLE 5.1 and TABLE 5.2, respectively. Groups of six mice (3 male, 3 female) were given a single dose of [14C]-3,4,3-L1(1,2-HOPO) via iv, ip, or po routes, respectively. An additional group of six mice (3 male, 3 female) were administered the 14C-labeled API with permeability enhancer (10% sodium oleate) by oral gavage (po). Similarly, groups of six rats (3 male, 3 female) were administered a single iv dose of the 14C-labeled API or a single po dose of the 14C-labeled API with 10% sodium oleate. In each of these studies, samples were collected at scheduled time points up to 24 hr post-dose and analyzed for 14C content using liquid scintillation counting. Blood, liver, kidney, feces and urine were collected and analyzed from the mice. Blood, brain, liver, kidney, lungs, spleen, skeletal muscle tissues, gastrointestinal (GI) tract samples, carcasses, feces, and urine were collected and analyzed from the rats."}, "[3]": {"assay": "Radiolabeled in vivo ADME study in rats (with metabolite profiling)", "parameters": "species or system Sprague Dawley rats", "details": "for urinary excretion, of administered dose: rodents (rats)", "source_text": "as §1, §2\nThe principal excretion routes of radioactivity from [14C]-3,4,3-L1(1,2-HOPO) were both the feces and urine after an iv dose based on high levels of radioactivity in both feces and urine as well as significant radioactivity in the excretory tissues, kidney, liver and GI tract. Fecal elimination by 24 hr post-dose accounted for approximately 62% and 16% of the iv administered dose in mice and rats, respectively. Urinary excretion accounted for approximately 12-23% of the iv administered dose in these rodents with renal excretion of 14C beginning as early as 5 min after iv injection in mice. In contrast, following oral administration, excretion was primarily by the fecal route accounting for approximately 89% and 41% of the orally administered dose in mice and rats, respectively, by 24 h post-dose. Urinary excretion accounted for <1% of the orally administered dose and low radioactivity levels were detected in systemic circulation and in tissues except for the GI tract. […] Based on the colonic transit time in rats of 15.5 hr, 11 the radioactivity found in the feces in the first 24 hr after po administration is most likely unabsorbed compound. […] Metabolite profiling of [14C]-3,4,3-L1(1,2-HOPO) was performed using an HPLC method on selected urine, feces, kidney, liver, and lung samples from the Sprague Dawley rat. Only samples containing the highest total radioactive levels were selected for analysis. A total of 11 peaks were detected, of which 6 were from uncharacterized interactions between the test article and matrix components because they were also seen in spiked blank matrix controls. These 6 peaks are not metabolites and are considered alternate forms of the parent compound (e.g. complexes of the test article with metallic ions). The 5 other radioactive species (peaks P1-P4 and P10) are considered potential metabolites. Feces-specific metabolite peaks P2, P3, and P10 represented a combined 10.5-11.4% and 0.5-4.2% of the administered dose after po or iv administration, respectively, in rats. Peak P10 was the most abundant peak in all samples analyzed. It represented up to 10% of the administered dose in feces after po administration while the other two feces-specific peaks represented <1% of the administered dose after po administration. Peak P10 was also the predominant, and sometimes the only, peak in feces samples after iv administration. […]"}}, "note": "Read-outs that look alike come from different tables or passages of the source.", "data": [{"compound": "O=C(NCCCN(CCCCN(CCCNC(=O)c1cccc(=O)n1O)C(=O)c1cccc(=O)n1O)C(=O)c1cccc(=O)n1O)c1cccc(=O)n1O", "note": "[Drug Substance Control]", "values": [{"measurement": "Chromatographic Purity of 3,4,3-LI(1,2-HOPO)", "setting": "[1]; 3,4,3-LI(1,2-HOPO) peak", "value": "97.45 area (%)"}, {"measurement": "Related Substances, Unknown peak", "setting": "[1]; RRT 0.59", "value": "0.01 area (%)"}, {"measurement": "Related Substances, Unknown peak", "setting": "[1]; RRT 0.61", "value": "0.01 area (%)"}, {"measurement": "Related Substances, Unknown peak", "setting": "[1]; RRT 0.62", "value": "0.01 area (%)"}, {"measurement": "Related Substances, Unknown peak", "setting": "[1]; RRT 0.87", "value": "0.11 area (%)"}, {"measurement": "Related Substances, Unknown peak", "setting": "[1]; RRT 0.89", "value": "0.13 area (%)"}, {"measurement": "Related Substances, Unknown peak", "setting": "[1]; RRT 1.02", "value": "0.08 area (%)"}, {"measurement": "Related Substances, Unknown peak", "setting": "[1]; RRT 1.11", "value": "0.04 area (%)"}, {"measurement": "Related Substances, Unknown peak", "setting": "[1]; RRT 1.27", "value": "0.17 area (%)"}, {"measurement": "Related Substances, Unknown peak", "setting": "[1]; RRT 1.30", "value": "0.10 area (%)"}, {"measurement": "Related Substances, Unknown peak", "setting": "[1]; RRT 1.39", "value": "0.20 area (%)"}, {"measurement": "Related Substances, Unknown peak", "setting": "[1]; RRT 1.40", "value": "0.04 area (%)"}, {"measurement": "Related Substances, Unknown peak", "setting": "[1]; RRT 1.46", "value": "0.60 area (%)"}, {"measurement": "Related Substances, Unknown peak", "setting": "[1]; RRT 1.74", "value": "0.15 area (%)"}, {"measurement": "Related Substances, Unknown peak", "setting": "[1]; RRT 1.89", "value": "0.18 area (%)"}, {"measurement": "Related Substances, Unknown peak", "setting": "[1]; RRT 2.17", "value": "0.33 area (%)"}, {"measurement": "Related Substances, Unknown peak", "setting": "[1]; RRT 2.30", "value": "0.05 area (%)"}, {"measurement": "Related Substances, Unknown peak", "setting": "[1]; RRT 2.58", "value": "0.25 area (%)"}, {"measurement": "Related Substances, Unknown peak", "setting": "[1]; RRT 2.79", "value": "0.11 area (%)"}]}, {"compound": "[14C]-3,4,3-L1(1,2-HOPO)", "values": [{"measurement": "time of highest level of radioactivity in kidneys and liver", "setting": "[2]; ip, mice", "value": 1, "unit": "h"}, {"measurement": "fecal elimination, of administered dose", "setting": "[2]; iv, by 24 hr post-dose, mice", "value": "approximately 62%"}, {"measurement": "AUC (plasma radioactivity)", "setting": "[2]; iv, female mice", "value": 66.2, "unit": "hr Pg-eq/ml"}, {"measurement": "C0 (plasma radioactivity)", "setting": "[2]; iv, female mice", "value": 342, "unit": "Pg-eq/mL"}, {"measurement": "AUC (plasma radioactivity)", "setting": "[2]; iv, male mice", "value": 41.7, "unit": "hr Pg-eq/ml"}, {"measurement": "C0 (plasma radioactivity)", "setting": "[2]; iv, male mice", "value": 76, "unit": "Pg-eq/mL"}, {"measurement": "time of highest level of radioactivity in kidneys and liver", "setting": "[2]; iv, mice", "value": 1, "unit": "h"}, {"measurement": "urinary excretion, of administered dose", "setting": "[2]; iv", "value": "12-23%"}, {"measurement": "oral bioavailability improvement with sodium oleate", "setting": "[2]; mice", "value": "2- to 3 fold"}, {"measurement": "fecal excretion, of administered dose", "setting": "[2]; oral, by 24 h post-dose, mice", "value": "approximately 89%"}, {"measurement": "bioavailability of total radioactivity", "setting": "[2]; oral, mice", "value": "< 3", "unit": "%"}, {"measurement": "urinary excretion, of administered dose", "setting": "[2]; oral", "value": "< 1", "unit": "%"}, {"measurement": "general rank order of tissue concentrations", "setting": "[3]; iv, 2 hr time point, rats", "value": "kidney>liver>lung>brain spleen muscle"}, {"measurement": "fecal elimination, of administered dose", "setting": "[3]; iv, by 24 hr post-dose, rats", "value": "~16", "unit": "%"}, {"measurement": "AUC (plasma radioactivity)", "setting": "[3]; iv, female rats", "value": 211, "unit": "hr Pg-eq/ml"}, {"measurement": "C0 (plasma radioactivity)", "setting": "[3]; iv, female rats", "value": 422, "unit": "Pg-eq/ml"}, {"measurement": "AUC (plasma radioactivity)", "setting": "[3]; iv, male rats", "value": 354, "unit": "hr Pg-eq/ml"}, {"measurement": "C0 (plasma radioactivity)", "setting": "[3]; iv, male rats", "value": 463, "unit": "Pg-eq/ml"}, {"measurement": "feces-specific metabolite peaks P2, P3, and P10 combined, of the administered dose", "setting": "[3]; iv, rats", "value": "0.5-4.2%"}, {"measurement": "metabolite peak P1 in urine, of the administered dose", "setting": "[3]; iv, rats", "value": "≤ 0.4", "unit": "%"}, {"measurement": "time of highest level of radioactivity in kidneys and liver", "setting": "[3]; iv, rats", "value": 2, "unit": "h"}, {"measurement": "urinary excretion, of administered dose", "setting": "[3]; iv", "value": "12-23%"}, {"measurement": "fecal excretion, of administered dose", "setting": "[3]; oral, by 24 h post-dose, rats", "value": "~41", "unit": "%"}, {"measurement": "bioavailability of total radioactivity", "setting": "[3]; oral, rats", "value": "< 3", "unit": "%"}, {"measurement": "putative major metabolite (P10), of an administered oral dose", "setting": "[3]; oral, rats", "value": "~10", "unit": "%"}, {"measurement": "urinary excretion, of administered dose", "setting": "[3]; oral", "value": "< 1", "unit": "%"}, {"measurement": "feces-specific metabolite peaks P2, P3, and P10 combined, of the administered dose", "setting": "[3]; po, rats", "value": "10.5-11.4%"}, {"measurement": "other two feces-specific peaks, of the administered dose", "setting": "[3]; po, rats", "value": "< 1", "unit": "%"}, {"measurement": "peak P10 in feces, of the administered dose", "setting": "[3]; po, rats", "value": "up to 10%"}]}]}
